Tests used:
PI 3-kinase = PI 3-kinase activity after dual ligation of CR3 in human neutrophils (ELISA); type: cell-based; conditions: dual ligation plus inhibitor: LY294002 50 μM, Piceatannol 25 μM; one hour
Procedure: Human neutrophils were stimulated with anti-M1/70 mAb (1 μg/ml) followed with goat-anti-rat Ig (5 μg/ml) in the presence or absence of the 25 kD active moiety of β-glucan (10 μg/ml) at 37° C. […] For measurement of PI 3-kinase activity, cells were stimulated for one hour and aliquots of cell lysates adjusted for protein concentration (500 μg of protein) were incubated for two hours at 4° C. with anti-PI 3-kinase p85 antibody, and immune complexes were adsorbed onto protein A-agarose for three hours. The complexes were then washed twice with lysis buffer and three times with 10 mM Tris-HCl, pH 7.4. To ensure that PI 3-kinase levels remained equivalent at the end of the immunoprecipitation, 10% from each treatment sample were collected during the last wash in a separate tube and analyzed by SDS-PAGE and immunoblotting with Abs to the p85 PI 3-kinase subunit. […] In brief, cell lysates were prepared and PI-3K was immunoprecipitated with antibody against the p85 subunit and incubated with PI(4,5)P2 (phosphatidylinositol-4,5-diphosphate). […]
Additionally, human peripheral blood neutrophils were stimulated with M1/70 mAb followed by secondary Ab (with or without 25 kD β-glucan) or 25 kD β-glucan alone for one hour. […] The immunoprecipitates were analyzed on SDS-PAGE gel and blotted with anti-PI 3-kinase p85 mAb. The immunoprecipitates were also measured for PI 3-kinase activity by ELISA. […]

[1] = tested on: low-grade or slow-growing NHL; conditions: 166 patients with advanced low-grade or slow-growing NHL, cited from earlier work

Molecule | PI 3-kinase activity (level of PI(3,4,5)P3) (PI 3-kinase) [µM] | patients having complete remission [1] [%] | patients whose tumors shrunk by at least one half ([1]; those who completed treatment) [%]
O=c1cc(N2CCOCC2)oc2c(-c3ccccc3)cccc12 [LY294002] | 9.05 ± 1.14 | – | –
Oc1cc(O)cc(/C=C/c2ccc(O)c(O)c2)c1 [Piceatannol] | 17.1 ± 1.5 | – | –
rituximab: monoclonal antibody used to treat non-Hodgkin's lymphoma | – | 6 | 48

— patent publication US20090047288A1, “Glucan compositions and methods of enhancing CR3 dependent neutrophil-mediated cytotoxicity” (priority 2006, published 2009)
